Measured values taken from patent US12594258B2, “Inhibitors of MHC-I Nef downmodulation for treating HIV” (priority 2019, dated 2026).

Experiments:
[1] = test system: lysosome neutralization in primary CD4+ T cells; test: Lysotracker Red flow cytometry assay in primary CD4+ T cells; type: cell-based, human
Procedure: Cells were treated with plecomacrolides at a density of 1×10^6 cells/mL for 24 hours, then treated with 100 nM LysoTracker Red DND-99 (Fisher, L7528) in PBS at a density of 1×10^6 cells/mL for 1 hour at 37° C., washed twice in PBS, and fixed in 2% PFA before flow cytometric analysis on a BioRad Ze5 flow cytometer.
Lysotracker Flow Cytometry Assay. Cells were treated with plecomacrolides at a density of 1×10^6 cells per milliliter for 24 h, and then treated with 100 nM LysoTracker Red DND-99 in phosphate-buffered saline (PBS) at a density of 1×10^6 cells per milliliter for 1 h at 37° C., washed twice in PBS, and fixed in 2% paraformaldehyde (PFA) before flow cytometric analysis on a flow cytometer.

CD4+ T cells = test: Cell cycle analysis of CD4+ T cells; type: cell-based, human; conditions: 0.5 nM
AP-1:Nef:MHC-I complex = test: GST-tagged MHC-I cytoplasmic tail pull down assay; type: binding
Source text: The His6- and GST-tagged AP-1 core, mouse AP1M1 (157-423) (referred as μ1-CTD), human Arf1 (17-181)-Q71L, human MHC-I (338-365)-NL4-3 Nef, HIV-1 NL4-3 Nef constructs and protein purification were previously described. For GST pull down assay, codon-optimized human MHC-I (338-365) was subcloned into pGST parallel2 vector using BamHI/Xhol sites, fused an N-terminal GST tag and a TEV cleavage site. PCR encoding HIV-1 Nef or SlVsmm Nef fused with GFP was subcloned into LIC 2BT vector (Macrolab), expressed as a TEV-cleavable N-terminal His6 tag and C-terminal uncleavable GFP tag.
GST tagged MHC-I tail was expressed in BL21 (DE3) star cells by induction at 20° C. overnight. The purification was carried out using glutathione-Sepharose 4B resin, the elution was then subjected to a HiLoad 16/60 Superdex 75 column in the buffer of 20 mM Tris pH 8, 150 mM NaCl, 0.1 mM TCEP.

[2] = test system: HIV-infected primary CD4+ T cells; test: Flow cytometric CTL killing assay; type: cell-based, human
Source text: CTL clones were isolated by limiting dilution from HIV-1- infected individuals. […] The CTL clones were maintained in culture with periodic re-stimulation as previously described except for the following changes; CTL clones were stimulated with anti-CD3 clone 12F6 (NIH AIDS Reagent Program) and cultured with IL-2 (NIH AIDS Reagent Program, Hoffman-La Roche). Peripheral blood mononuclear feeder cells were isolated from leukopaks (New York Blood Center) and X-irradiated with […] in R10 medium. Irradiations were performed using a Kimtron IC 225(Kimtron Medical) at a dose rate of approximately 2 Gy/min in the University of Michigan Comprehensive Cancer Center Experimental Irradiation Core (Ann Arbor, Mich.). CTL clones 115B15 and 161JXA14 both recognize HIV gag amino acids 77-85; SLYNTVATL presented by MHC-I HLA-A2 (71).
CTL elimination assays were performed as previously described with the following modifications: 72 hours post-infection primary CD4^+ T cells were stained with CellTracker Green (Fisher, c7025) according to manufacturer's protocol and treated with 0.5 nM CMA or solvent control for 24 hours. 50,000 target cells were used per condition, and following the 4 hours of co-culture, the cells were stained with DAPI as a viability dye in addition to anti-PLAP and BB7.2 antibodies. […]

[3] = test system: Nef alleles from HIV clades A, B, C, D, F, and F/B and SIV; test: Nef alleles of diverse HIV clades and SIV (MSCV-IRES-GFP) in CEM cells expressing MHC-I alleles; type: cell-based
Procedure: (ii) MSCV: Murine stem cell virus internal ribosome entry site GFP (pMIG) constructs containing various nef alleles were generated as previously described. Retroviral supernatants were prepared using BOSC cells transfected with the pMIG constructs, the retrovirus packaging vector pCL-Eco (65) and pHCMV-G using PEI as described above for HIV. Viral supernatants were collected 48 h post-transfection, clarified by centrifugation, stored at −80° C., and transductions were performed as described for HIV constructs.

HIV Nef [4] = test: Nef activity in HIV-infected CD4+ T cells treated with plasma from CMA-injected mice; type: cell-based; conditions: plasma 30 minutes after injection, diluted 1:20
Procedure: FIG. 8F is a summary graph of flow cytometric data from experiments as in FIG. 1. Blood plasma was isolated from mice 30 minutes after injection with CMA, and CMA concentration was determined by mass spectrometry. Primary CD4+ T cells infected with HIV as in FIG. 1 were treated with 5% plasma from control mice spiked with known concentrations of CMA (standard curve) or with plasma from the CMA-injected mice diluted 1:20. Nef activity in cells receiving plasma from treated mice was compared to the standard curve based on the concentration of CMA as determined by mass spectrometry.
Mouse in vivo Assays. To further examine the tolerability of CMA, preliminary studies were performed in two groups of mice injected with different doses of CMA every other day for 18 days (FIG. 8A). […] In a separate experiment, plasma harvested from treated mice inhibited Nef in our in vitro assay (FIG. 8F). Taken together, these promising preliminary studies provide evidence that CMA is both efficacious and tolerable in vivo.

HIV Nef [5] = test system: HIV Nef

Structure (SMILES): C/C=C/[C@H]1O[C@@](O)([C@@H](C)[C@H](O)[C@H](C)[C@H]2OC(=O)/C(OC)=C/C(C)=C/[C@@H](C)[C@@H](O)[C@@H](CC)[C@@H](O)[C@H](C)C/C(C)=C/C=C/[C@@H]2OC)C[C@@H](O[C@H]2C[C@@H](O)[C@H](OC(N)=O)[C@@H](C)O2)[C@@H]1C [CMA, concanamycin A]
- difference between EC50 for lysosome neutralization and EC50 for Nef inhibition [1]: 27 fold
- EC50 ([1]; 24 hours): 1.9 nM
- decrease in cells in G2/M (CD4+ T cells): not statistically significant
- increase in the proportion of cells in S phase compared to solvent control (CD4+ T cells): 1.15 fold
- pulldown of NL4-3 Nef, SIV Nef or AP-1 μ1-CTD by GST-tagged MHC-I cytoplasmic tail (AP-1:Nef:MHC-I complex): did not alter pulldown
- CTL-mediated elimination of PLAP+ cells infected with Nef-competent virus ([2]; 0.5 nM, 24 hours): efficiently eliminated by CTLs
- clearance of SL9 peptide-pulsed target cells by anti-HIV CTLs ([2]; in the presence of 0.5 nM): No change in the clearance
- surface expression of HA-tagged HLA-A*02, HLA-B*08, HLA-B*27, HLA-B*57 ([3]; CEM cells, each Nef allele): restored MHC-I surface expression in every context
- HLA-A2 expression in cells expressing diverse nef alleles ([3]; CEM-A2 cells): restored expression of HLA-A2 in cells expressing each nef allele
- Nef inhibition by plasma harvested from treated mice (HIV Nef [4]): inhibited Nef
